Assays:
Type in all cases: physicochemical
[1] = Example 9: stability of bilberry extract anthocyanosides, 4 hours at 37° C., pH 7.0, with/without L-cysteine
Procedure: Sample a) 60 mg bilberry extract [37% anthocyanosides] (0.048 mmol anthocyanosides expressed as cyanidin-3-O-glucoside) were added to a 100 ml flask with 60 ml sodium phosphate buffer (5% [w/w], pH=7.0), and stirred until dissolution was complete. A 1 ml sample was taken immediately and acidified with formic acid to pH=1.0 and analyzed by HPLC for the content of anthocyanosides (Fresh Sample). The remaining solution was kept for 4 hours at 37° C. (water bath) with stirring. Thereafter another sample (Blank sample), representing unprotected degradation, was taken and acidified.
Sample b) 20 mg L-cysteine […] were added to a 100 ml flask with 60 ml sodium phosphate buffer (5% [w/w], pH=7.0) and stirred until dissolution was complete. 60 mg bilberry extract [37% anthocyanosides] (0.048 mmol expressed as cyanidin-3-O-glucoside) were then added to the flask and stir to fully dissolve, then kept for 4 hours at 37° C. (water bath) with stirring.
After 4 hours, samples were taken and acidified immediately with formic acid to pH=1.0 and analyzed by HPLC for the content of anthocyanosides. Degradation is expressed as decrease in peak area of individual peaks (calculated as % left after 4 hours).
Samples were prepared as outlined above in the HPLC Analytical Method. Test stability samples were immediately acidified (to block degradation) and injected undiluted following the detailed description provided below.

[2] = Example 2: degradation over time of selected bilberry anthocyanosides at 37° C., pH 7.0, with/without GSH (HPLC); conditions: pH 7.0, 37° C.; for %-residual anthocyanosides (% left): 4.30 hours
Procedure: Sample a) 60 mg bilberry extract [37% anthocyanosides] (0.048 mmol expressed as cyanidin-3-O-glucoside) were added to a 100 ml, filled to volume with sodium phosphate buffer (5% [w/w], pH=7.0) and stirred until dissolution was complete. A 1 ml sample was immediately taken and acidified with formic acid to pH=1.0 and analyzed by HPLC for the content of anthocyanosides. The remaining solution was kept at 37° C. (water bath) with stirring and additional 1 ml samples (Blank Samples), representing unprotected degradation, were sampled every 15 minutes. The samples were analyzed for selected anthocyanosides by HPLC.
Sample b) 20 mg reduced L-glutathione (0.065 mmol) were added to a 100 ml flask with 60 ml sodium phosphate buffer (5% [w/w], pH=7.0) and stirred until dissolution was complete. 60 mg bilberry extract [37% anthocyanosides] (0.048 mmol expressed as cyanidin-3-O-glucoside) were added and the flask was filled to volume with sodium phosphate buffer (5% [w/w], pH=7.0) and kept at 37° C. (water bath) with stirring. Every 15 minutes, 1 ml samples were taken and analyzed for selected anthocyanosides by HPLC.
(§1) Samples were prepared as outlined below in HPLC Analytical Method. Test stability samples were immediately acidified (to block degradation) and injected undiluted following the detailed description provided below.
HPLC Analytical Method (Materials, Instruments and Methods): […]

[3] = Example 1: stability of bilberry extract anthocyanosides, 4 hours at 37° C., pH 7.0, with/without DHLA or GSH (HPLC)
[4] = Example 8: oxidation of GSH to GSSG in buffer pH 7.0 at 37° C. with/without bilberry extract (HPLC); conditions: buffer pH 7.0, 37° C.
Procedure: Sample a) 60 mg GSH (0.192 mmol) were placed into a 100 ml flask, dissolved and filled up to volume with sodium phosphate buffer (5% [w/w], pH=7.0). The sample was kept with stirring at 37° C. Samples were taken immediately after dissolution and after 1, 2, 3 and 4 hours of incubation. The samples were analyzed by HPLC for GSH and GSSG (representing the oxidized form of GSH).
Sample b) 60 mg reduced L-glutathione (0.192 mmol) were added to a 100 ml flask with 60 ml sodium phosphate buffer (5% [w/w], pH=7.0) and stirred until dissolution was complete. 60 mg bilberry extract [37% anthocyanosides] (0.048 mmol expressed as cyanidin-3-O-glucoside) were added, the flask was filled to volume with sodium phosphate buffer (5% [w/w], pH=7.0) and kept at 37° C. (water bath) with stirring. Samples were taken immediately after dissolution and after 1, 2, 3 and 4 hours of incubation. The samples were analyzed by HPLC for GSH and GSSG (representing the oxidized form of GSH).
as §1

[5] = unprotected, pH 7.0, 37° C., 4 hours
[6] = 20 mg reduced L-glutathione, pH 7.0, 37° C., 4 hours
[7] = 30 mg dihydrolipoic acid, pH 7.0, 37° C., 4 hours

## OC[C@H]1O[C@@H](Oc2cc3c(O)cc(O)cc3[o+]c2-c2cc(O)c(O)c(O)c2)[C@H](O)[C@@H](O)[C@H]1O [Dp-3O-Gal, Delphinidin 3-o-galactoside]
[1]; bilberry extract 60 mg in buffer pH 7.0, fresh sample
  Peak Area, Fresh solution: 654.4
[1]; pH 7.0, 37° C., 4 hours
  % left, L-cysteine 20 mg: 50.6%
  Peak Area, L-cysteine 20 mg: 331.3
[1]; [5]
  % left, Blank: 7.8%
  Peak Area, Blank: 50.9
[2]; Blank Sample, 1:15 h
  Peak Area: 354.36
[2]; Blank Sample, 4:15 h
  Peak Area: 226.99
[2]; Blank Sample, 4:30 h
  Peak Area: 135.48
[2]; Blank sample, 0:00 h
  Peak Area: 699.51
[2]; Blank sample, 0:15 h
  Peak Area: 547.09
[2]; Blank sample, 0:30 h
  Peak Area: 603.54
[2]; Blank sample, 0:45 h
  Peak Area: 451.09
[2]; Blank sample, 1:00 h
  Peak Area: 467.23
[2]; Blank sample, 1:45 h
  Peak Area: 401.11
[2]; Blank sample, 2:00 h
  Peak Area: 356.25
[2]; Blank sample, 2:15 h
  Peak Area: 320.33
[2]; Blank sample, 2:30 h
  Peak Area: 262.70
[2]; Blank sample, 2:45 h
  Peak Area: 264.07
[2]; Blank sample, 3:00 h
  Peak Area: 288.65
[2]; Blank sample, 3:15 h
  Peak Area: 289.95
[2]; Blank sample, 3:30 h
  Peak Area: 237.41
[2]; Blank sample, 4:00 h
  Peak Area: 243.90
[2]; Blank
  %-residual anthocyanosides (% left): 19%
[2]; GSH Protected Sample (20 mg), 0:30 h
  Peak Area: 674.83
[2]; GSH Protected Sample (20 mg), 1:30 h
  Peak Area: 618.45
[2]; GSH Protected Sample (20 mg), 2:30 h
  Peak Area: 528.71
[2]; GSH Protected Sample (20 mg), 3:30 h
  Peak Area: 553.82
[2]; GSH Protected Sample (20 mg), 4:30 h
  Peak Area: 531.62
[2]; GSH Protected Sample (20 mg), 4:45 h
  Peak Area: 478.52
[2]; GSH protected sample (20 mg), 0:00 h
  Peak Area: 731.12
[2]; GSH protected sample (20 mg), 0:15 h
  Peak Area: 739.50
[2]; GSH protected sample (20 mg), 0:45 h
  Peak Area: 598.57
[2]; GSH protected sample (20 mg), 1:00 h
  Peak Area: 652.53
[2]; GSH protected sample (20 mg), 1:15 h
  Peak Area: 648.70
[2]; GSH protected sample (20 mg), 1:45 h
  Peak Area: 609.47
[2]; GSH protected sample (20 mg), 2:00 h
  Peak Area: 583.66
[2]; GSH protected sample (20 mg), 2:15 h
  Peak Area: 592.13
[2]; GSH protected sample (20 mg), 2:45 h
  Peak Area: 560.24
[2]; GSH protected sample (20 mg), 3:00 h
  Peak Area: 562.10
[2]; GSH protected sample (20 mg), 3:15 h
  Peak Area: 562.39
[2]; GSH protected sample (20 mg), 3:45 h
  Peak Area: 495.67
[2]; GSH protected sample (20 mg), 4:00 h
  Peak Area: 563.95
[2]; GSH protected sample (20 mg), 4:15 h
  Peak Area: 540.10
[2]; GSH-protected
  %-residual anthocyanosides (% left): 65%
[2]; GSH-protected, listed as delphinidin-3-O-Galactose
  %-residual anthocyanosides (% left): 65%
[3]; [6]
  % left, GSH (4 hours): 50.6%
  Peak Area, GSH (4 hours): 331.3
[3]; [7]
  % left, DHLA (4 hours): 60.5%
  Peak Area, DHLA (4 hours): 395.8
[3]; bilberry extract 60 mg/100 ml sodium phosphate buffer pH 7.0, fresh sample
  Peak Area, Fresh (0 hours): 654.4
[3]; [5]
  % left, Blank (4 hours): 7.8%
  Peak Area, Blank (4 hours): 50.9

## N[C@@H](CCC(=O)N[C@@H](CS)C(=O)NCC(=O)O)C(=O)O [GSH, reduced L-glutathione]
[4]; GSH + bilberry Sample, 0 hours
  Peak Area: 4760
  peak area Ratio %: 92.3%
[4]; GSH + bilberry Sample, 1 hour
  Peak Area: 4071
  peak area Ratio %: 79.0%
[4]; GSH + bilberry Sample, 2 hours
  Peak Area: 3378
  peak area Ratio %: 65.5%
[4]; GSH + bilberry Sample, 3 hours
  Peak Area: 3045
  peak area Ratio %: 59.1%
[4]; GSH + bilberry Sample, 4 hours
  Peak Area: 2461
  peak area Ratio %: 47.7%
[4]; GSH Sample, 0 hours
  Peak Area: 4760
  peak area Ratio %: 92.3%
[4]; GSH Sample, 1 hour
  Peak Area: 4744
  peak area Ratio %: 92.0%
[4]; GSH Sample, 2 hours
  Peak Area: 4220
  peak area Ratio %: 81.9%
[4]; GSH Sample, 3 hours
  Peak Area: 4053
  peak area Ratio %: 78.6%
[4]; GSH Sample, 4 hours
  Peak Area: 3777
  peak area Ratio %: 73.3%
